Source: patent US20070218016A1, “Use of Aroma Substance Mixtures as Agents Against Bad Breath” (SYMRISE GMBH & CO. KG, priority 2004, published 2007)

Tested on: sterile liquid medium inoculated with fresh morning saliva
Experiment: In vitro test for reduction of bad breath (inoculated medium smelled by a panel of testers)
Type: cell-based
Details: 0.05% added to inoculated samples, incubated at 37° C. for some days
Protocol: In Vitro Test for Reduction of Bad Breath
The test is based on the work of Goldberg and Rosenberg (Production of Oral Malodor in an in vitro System, S. Goldberg and M. Rosenberg, pp. 143-150, in: Bad Breath—A Multidisciplinary Approach, eds: D. van Steenberghe, M. Rosenberg, Leuven University Press, 1996) and was adapted for better reproducibility.
A sterile liquid medium inoculated with fresh morning saliva is incubated at 37° C. for some days and then smelled by a panel of testers.
An intensive, typical bad breath odour had formed. Non-inoculated controls have only a weak smell of the medium.
Triclosan® (5-chloro-2-(2,4-dichlorophenoxy)phenol) was added to inoculated samples in a concentration of 0.05% as a control for the tests.
By addition of in each case 0.01% of the mixtures E-1 to E-6 according to the invention (see Table 1) to inoculated samples, no smell—analogously to Triclosan®—was to be found after the incubation time. This value also corresponds to the minimum active concentration.
If 0.05% of a mixture according to the invention is added to the inoculated medium only one hour before the sensory evaluation, an unpleasant mixed smell of bad breath and a weak note of the mixture according to the invention is to be observed.

## Oc1cc(Cl)ccc1Oc1ccc(Cl)cc1Cl [Triclosan, 5-chloro-2-(2,4-dichlorophenoxy)phenol]
  smell after the incubation: same weak smell of the medium as the non-inoculated samples
